Measurements from the NIST ThermoML archive (doi:10.1021/je060179e).
± gives the expanded uncertainty stated by the source.

Assay: xn = mol fraction of the nth substance listed
Details: for mass density: 101 kPa, Liquid

CCCCO [butan-1-ol] + CCCCCCC
surface tension liquid-gas (288.15 K, x2 = 0.0498): 24.31 ± 0.29 mN/m
surface tension liquid-gas (288.15 K, x2 = 0.1007): 23.81 ± 0.29 mN/m
surface tension liquid-gas (288.15 K, x2 = 0.2005): 22.99 ± 0.28 mN/m
surface tension liquid-gas (288.15 K, x2 = 0.3043): 22.37 ± 0.28 mN/m
surface tension liquid-gas (288.15 K, x2 = 0.4058): 21.88 ± 0.28 mN/m
surface tension liquid-gas (288.15 K, x2 = 0.5054): 21.56 ± 0.27 mN/m
surface tension liquid-gas (288.15 K, x2 = 0.599): 21.38 ± 0.27 mN/m
surface tension liquid-gas (288.15 K, x2 = 0.7072): 21.17 ± 0.27 mN/m
surface tension liquid-gas (288.15 K, x2 = 0.8008): 21.03 ± 0.27 mN/m
surface tension liquid-gas (288.15 K, x2 = 0.8982): 20.94 ± 0.27 mN/m
surface tension liquid-gas (288.15 K, x2 = 0.9532): 20.87 ± 0.27 mN/m
mass density (288.15 K, x2 = 0.051): 803.35 ± 0.44 kg/m3
mass density (288.15 K, x2 = 0.0998): 794.33 ± 0.46 kg/m3
mass density (288.15 K, x2 = 0.2067): 776.12 ± 0.49 kg/m3
mass density (288.15 K, x2 = 0.3087): 760.61 ± 0.51 kg/m3
mass density (288.15 K, x2 = 0.4059): 747.14 ± 0.53 kg/m3
mass density (288.15 K, x2 = 0.5052): 734.63 ± 0.56 kg/m3
mass density (288.15 K, x2 = 0.5986): 724.01 ± 0.57 kg/m3
mass density (288.15 K, x2 = 0.7259): 710.89 ± 0.6 kg/m3
mass density (288.15 K, x2 = 0.8066): 703.39 ± 0.61 kg/m3
mass density (288.15 K, x2 = 0.908): 694.8 ± 0.62 kg/m3
mass density (288.15 K, x2 = 0.9523): 691.35 ± 0.63 kg/m3
surface tension liquid-gas (293.15 K, x2 = 0.0503): 23.76 ± 0.28 mN/m
surface tension liquid-gas (293.15 K, x2 = 0.1008): 23.26 ± 0.28 mN/m
surface tension liquid-gas (293.15 K, x2 = 0.201): 22.44 ± 0.28 mN/m
surface tension liquid-gas (293.15 K, x2 = 0.2986): 21.85 ± 0.28 mN/m
surface tension liquid-gas (293.15 K, x2 = 0.4002): 21.37 ± 0.27 mN/m
surface tension liquid-gas (293.15 K, x2 = 0.5009): 21.01 ± 0.27 mN/m
surface tension liquid-gas (293.15 K, x2 = 0.5998): 20.79 ± 0.27 mN/m
surface tension liquid-gas (293.15 K, x2 = 0.7034): 20.62 ± 0.27 mN/m
surface tension liquid-gas (293.15 K, x2 = 0.7971): 20.51 ± 0.27 mN/m
surface tension liquid-gas (293.15 K, x2 = 0.902): 20.37 ± 0.27 mN/m
surface tension liquid-gas (293.15 K, x2 = 0.9511): 20.33 ± 0.27 mN/m
mass density (293.15 K, x2 = 0.051): 799.52 ± 0.45 kg/m3
mass density (293.15 K, x2 = 0.0998): 790.46 ± 0.46 kg/m3
mass density (293.15 K, x2 = 0.2067): 772.16 ± 0.49 kg/m3
mass density (293.15 K, x2 = 0.3087): 756.57 ± 0.52 kg/m3
mass density (293.15 K, x2 = 0.4059): 743 ± 0.54 kg/m3
mass density (293.15 K, x2 = 0.5052): 730.46 ± 0.56 kg/m3
mass density (293.15 K, x2 = 0.5986): 719.8 ± 0.58 kg/m3
mass density (293.15 K, x2 = 0.7259): 706.65 ± 0.6 kg/m3
mass density (293.15 K, x2 = 0.8066): 699.15 ± 0.62 kg/m3
mass density (293.15 K, x2 = 0.908): 690.55 ± 0.63 kg/m3
mass density (293.15 K, x2 = 0.9523): 687.11 ± 0.64 kg/m3
surface tension liquid-gas (298.15 K, x2 = 0.056): 23.17 ± 0.28 mN/m
surface tension liquid-gas (298.15 K, x2 = 0.0937): 22.75 ± 0.28 mN/m
surface tension liquid-gas (298.15 K, x2 = 0.2085): 21.94 ± 0.28 mN/m
surface tension liquid-gas (298.15 K, x2 = 0.302): 21.35 ± 0.27 mN/m
surface tension liquid-gas (298.15 K, x2 = 0.3975): 20.86 ± 0.27 mN/m
surface tension liquid-gas (298.15 K, x2 = 0.5054): 20.44 ± 0.27 mN/m
surface tension liquid-gas (298.15 K, x2 = 0.6086): 20.17 ± 0.27 mN/m
surface tension liquid-gas (298.15 K, x2 = 0.806): 19.99 ± 0.27 mN/m
surface tension liquid-gas (298.15 K, x2 = 0.9082): 19.85 ± 0.27 mN/m
surface tension liquid-gas (298.15 K, x2 = 0.9502): 19.81 ± 0.27 mN/m
mass density (298.15 K, x2 = 0.051): 795.66 ± 0.45 kg/m3
mass density (298.15 K, x2 = 0.0998): 786.55 ± 0.47 kg/m3
mass density (298.15 K, x2 = 0.2067): 768.15 ± 0.5 kg/m3
mass density (298.15 K, x2 = 0.3087): 752.48 ± 0.52 kg/m3
mass density (298.15 K, x2 = 0.4059): 738.85 ± 0.55 kg/m3
mass density (298.15 K, x2 = 0.5052): 726.25 ± 0.57 kg/m3
mass density (298.15 K, x2 = 0.5986): 715.56 ± 0.59 kg/m3
mass density (298.15 K, x2 = 0.7259): 702.38 ± 0.61 kg/m3
mass density (298.15 K, x2 = 0.8066): 694.86 ± 0.62 kg/m3
mass density (298.15 K, x2 = 0.908): 686.27 ± 0.64 kg/m3
mass density (298.15 K, x2 = 0.9523): 682.83 ± 0.64 kg/m3
surface tension liquid-gas (303.15 K, x2 = 0.0491): 22.62 ± 0.28 mN/m
surface tension liquid-gas (303.15 K, x2 = 0.0997): 22.16 ± 0.28 mN/m
surface tension liquid-gas (303.15 K, x2 = 0.2052): 21.41 ± 0.27 mN/m
surface tension liquid-gas (303.15 K, x2 = 0.3051): 20.81 ± 0.27 mN/m
surface tension liquid-gas (303.15 K, x2 = 0.4003): 20.3 ± 0.27 mN/m
surface tension liquid-gas (303.15 K, x2 = 0.504): 19.92 ± 0.27 mN/m
surface tension liquid-gas (303.15 K, x2 = 0.5966): 19.72 ± 0.26 mN/m
surface tension liquid-gas (303.15 K, x2 = 0.7052): 19.48 ± 0.26 mN/m
surface tension liquid-gas (303.15 K, x2 = 0.8014): 19.39 ± 0.26 mN/m
surface tension liquid-gas (303.15 K, x2 = 0.9024): 19.3 ± 0.26 mN/m
surface tension liquid-gas (303.15 K, x2 = 0.9507): 19.27 ± 0.26 mN/m
mass density (303.15 K, x2 = 0.051): 791.77 ± 0.46 kg/m3
mass density (303.15 K, x2 = 0.0998): 782.61 ± 0.47 kg/m3
mass density (303.15 K, x2 = 0.2067): 764.11 ± 0.5 kg/m3
mass density (303.15 K, x2 = 0.3087): 748.35 ± 0.53 kg/m3
mass density (303.15 K, x2 = 0.4059): 734.65 ± 0.55 kg/m3
mass density (303.15 K, x2 = 0.5052): 722 ± 0.57 kg/m3
mass density (303.15 K, x2 = 0.5986): 711.28 ± 0.59 kg/m3
mass density (303.15 K, x2 = 0.7259): 698.07 ± 0.61 kg/m3
mass density (303.15 K, x2 = 0.8066): 690.54 ± 0.63 kg/m3
mass density (303.15 K, x2 = 0.908): 681.95 ± 0.64 kg/m3
mass density (303.15 K, x2 = 0.9523): 678.52 ± 0.65 kg/m3
surface tension liquid-gas (308.15 K, x2 = 0.0507): 22.35 ± 0.28 mN/m
surface tension liquid-gas (308.15 K, x2 = 0.1017): 21.89 ± 0.27 mN/m
surface tension liquid-gas (308.15 K, x2 = 0.2054): 20.98 ± 0.27 mN/m
surface tension liquid-gas (308.15 K, x2 = 0.3025): 20.33 ± 0.27 mN/m
surface tension liquid-gas (308.15 K, x2 = 0.4017): 19.87 ± 0.26 mN/m
surface tension liquid-gas (308.15 K, x2 = 0.5052): 19.53 ± 0.26 mN/m
surface tension liquid-gas (308.15 K, x2 = 0.6007): 19.28 ± 0.26 mN/m
surface tension liquid-gas (308.15 K, x2 = 0.7306): 19.2 ± 0.26 mN/m
surface tension liquid-gas (308.15 K, x2 = 0.8079): 19.1 ± 0.26 mN/m
surface tension liquid-gas (308.15 K, x2 = 0.9086): 18.99 ± 0.26 mN/m
surface tension liquid-gas (308.15 K, x2 = 0.9532): 18.9 ± 0.26 mN/m
mass density (308.15 K, x2 = 0.051): 787.85 ± 0.47 kg/m3
mass density (308.15 K, x2 = 0.0998): 778.63 ± 0.48 kg/m3
mass density (308.15 K, x2 = 0.2067): 760.04 ± 0.51 kg/m3
mass density (308.15 K, x2 = 0.3087): 744.18 ± 0.54 kg/m3
mass density (308.15 K, x2 = 0.4059): 730.42 ± 0.56 kg/m3
mass density (308.15 K, x2 = 0.5052): 717.71 ± 0.58 kg/m3
mass density (308.15 K, x2 = 0.5986): 706.95 ± 0.6 kg/m3
mass density (308.15 K, x2 = 0.7259): 693.71 ± 0.62 kg/m3
mass density (308.15 K, x2 = 0.8066): 686.18 ± 0.63 kg/m3
mass density (308.15 K, x2 = 0.908): 677.61 ± 0.65 kg/m3
mass density (308.15 K, x2 = 0.9523): 674.17 ± 0.66 kg/m3
